This note sets out measurements from ChEMBL document CHEMBL1287746, “The discovery of tricyclic pyridone JAK2 inhibitors. Part 1: hit to lead” (Bioorg Med Chem Lett, 2010).

Molecules are shown by their SMILES. ≈ marks a conversion by molar mass, not a printed value.

Data set [1] concerns the target T1, Tyrosine-protein kinase JAK2 (Homo sapiens, UniProt O60674). The data set is described as follows: Inhibition of JAK2 in cell-free system.
In data set [2] the target is T1, Tyrosine-protein kinase JAK2. The data set is described as follows: Inhibition of JAK2 expressed in human Du-145 cells. Type of data set: cell-based.
A short description of data set [3]: Volume of distribution in Sprague-Dawley rat at 1 mg/kg, iv. As to conditions: in vivo. Type of data set: ADME, organism-based. The arrangement: dose 1 mg/kg, route intravenous.
The nature of data set [4]: Aqueous solubility of the compound at pH 7. Format: physicochemical.
The nature of data set [5]: Clearance in Sprague-Dawley rat at 1 mg/kg, iv. Type of data set: ADME, organism-based. The arrangement: dose 1 mg/kg, route intravenous. As to conditions: in vivo.
The nature of data set [6]: Lipophilicity log D of the compound at pH 7.4 by HPLC. Type of data set: physicochemical. The following applies: buffer.
For data set [7], the system named is Mus musculus. The data set is described as follows: Inhibition of JAK2 in erythropoietin-treated […] mouse assessed as reduction in pSTAT5 level in whole blood at 90 mg/kg, po measured after 1 and 3 hrs. Set-up: dose 90 mg/kg, route oral. Type of data set: functional, organism-based.
Data set [8] relates to Mus musculus. The data set is described as follows: Inhibition of JAK2 in erythropoietin-treated […] mouse assessed as reduction in pSTAT5 level in whole blood at 30 mg/kg, po measured after 1 and 3 hrs. Format: functional, organism-based. The arrangement: dose 30 mg/kg, route oral.

T1 sequence (O60674 whole entry): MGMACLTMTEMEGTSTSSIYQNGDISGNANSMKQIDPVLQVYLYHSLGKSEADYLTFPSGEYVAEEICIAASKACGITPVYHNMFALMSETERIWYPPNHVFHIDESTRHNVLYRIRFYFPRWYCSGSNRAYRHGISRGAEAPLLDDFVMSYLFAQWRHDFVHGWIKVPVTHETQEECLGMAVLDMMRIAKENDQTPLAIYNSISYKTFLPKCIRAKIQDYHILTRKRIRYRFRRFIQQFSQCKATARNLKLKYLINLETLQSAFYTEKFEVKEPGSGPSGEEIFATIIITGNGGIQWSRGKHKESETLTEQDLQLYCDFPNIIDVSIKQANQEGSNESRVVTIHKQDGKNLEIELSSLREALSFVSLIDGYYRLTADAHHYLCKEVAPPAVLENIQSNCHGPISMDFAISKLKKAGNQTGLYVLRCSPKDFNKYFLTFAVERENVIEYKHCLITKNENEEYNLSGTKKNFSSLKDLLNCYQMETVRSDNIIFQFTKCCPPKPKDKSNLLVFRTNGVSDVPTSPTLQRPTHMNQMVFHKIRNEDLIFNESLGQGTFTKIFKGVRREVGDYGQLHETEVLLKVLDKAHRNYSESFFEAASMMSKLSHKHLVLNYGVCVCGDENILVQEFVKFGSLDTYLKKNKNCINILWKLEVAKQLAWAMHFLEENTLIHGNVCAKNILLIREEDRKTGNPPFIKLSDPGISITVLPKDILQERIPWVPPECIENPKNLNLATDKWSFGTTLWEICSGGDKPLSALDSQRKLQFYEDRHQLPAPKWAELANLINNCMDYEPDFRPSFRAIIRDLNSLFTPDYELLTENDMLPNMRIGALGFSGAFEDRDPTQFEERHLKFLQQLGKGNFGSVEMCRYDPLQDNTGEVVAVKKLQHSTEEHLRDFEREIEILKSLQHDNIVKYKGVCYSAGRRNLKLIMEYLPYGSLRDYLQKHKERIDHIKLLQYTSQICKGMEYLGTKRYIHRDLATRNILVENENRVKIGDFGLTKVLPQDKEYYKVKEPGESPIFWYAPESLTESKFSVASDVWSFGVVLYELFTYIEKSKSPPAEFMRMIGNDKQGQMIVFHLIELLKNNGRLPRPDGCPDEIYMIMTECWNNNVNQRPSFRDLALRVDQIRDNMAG

`O=c1[nH]ccc2nc(NCc3ccncc3)c(-c3ccccc3)cc12`: the half-inhibitory concentration (IC50) – broadly, the midpoint of a concentration-inhibition curve – in data set [1] is 1400 nM.
Still for that read-out and setting: the figure for `O=c1[nH]ccc2nc(NCc3ccccn3)c3ccc(F)cc3c12` is 1110 nM.
`CC(C)[C@@H](Nc1nc2cc[nH]c(=O)c2c2cc(F)ccc12)C(F)(F)F`: the IC50 in data set [2] is 50 nM; in data set [1] it was 1 nM. Further, the Vd (in general, a proportionality between amount in the body and measured concentration, not a real space) in data set [3] is 6 L/kg. Besides, the solubility (in general, the dissolved amount per volume that the medium holds) in data set [4] worked out at 3 µM (≈ 1.06 µg/mL). The clearance (in general, the rate of elimination divided by the concentration) in data set [5] worked out at 21 mL/min/kg. Also, the logD (usually lipophilicity at a set pH, counting ionised and neutral species) in data set [6] was 3.34.
In turn, `CC(Nc1nc2cc[nH]c(=O)c2cc1-c1ccccn1)C(C)(C)C` (stereo unspecified) displayed an IC50 in data set [1] of 630 nM.
On to `O=c1[nH]ccc2nc(Nc3c(Cl)cccc3Cl)c3ccc(F)cc3c12`, for which the IC50 in data set [1] was found to be 14 nM.
In data set [1], `O=c1[nH]ccc2nc(Nc3c(F)cc(F)cc3Cl)c3ccc(F)cc3c12` came in with an IC50 of 4 nM.
The compound `CC(Nc1nc2cc[nH]c(=O)c2cc1-c1nc(-c2ccccc2)no1)C(C)(C)C` (stereo unspecified) returned an IC50 in data set [1] of 11500 nM.
Same read-out and setting: the figure for `CC(C)[C@H](C)Nc1nc2cc[nH]c(=O)c2c2cc(F)ccc12` is 27 nM; for `CC(Nc1nc2cc[nH]c(=O)c2c2cc(F)ccc12)C(C)(C)C` (stereo unspecified) it is 26 nM; for `CC(C)(CN)CNc1nc2cc[nH]c(=O)c2c2cc(F)ccc12` it is 3160 nM.
On the same count and under the same terms, as for `O=c1[nH]ccc2nc(NC3CC(F)(F)C3)c3ccc(F)cc3c12`, the figure is 750 nM; as for `CC(C)Nc1nc2cc[nH]c(=O)c2c2cc(F)ccc12`, 139 nM; as for `O=c1[nH]ccc2nc(N3CCC(F)(F)C3)c(-c3ccc(F)cc3)cc12`, 3940 nM.
The same measure, in the same setting: as for `CN1CCC(N(c2nc3cc[nH]c(=O)c3c3cc(F)ccc23)C2CC2)CC1`, the figure is 540 nM.
In data set [1], `O=c1[nH]ccc2nc(NCc3c(Cl)cccc3Cl)c3ccc(F)cc3c12` came in with an IC50 of 53 nM.
Still for that read-out and setting: as for `O=c1[nH]ccc2nc(NCC3CCS(=O)(=O)C3)c3ccc(F)cc3c12` (stereo unspecified), the figure is 512 nM; as for `CC(Nc1nc2cc[nH]c(=O)c2cc1C(=O)NCCN(C)C)C(C)(C)C` (stereo unspecified), 8350 nM.
Turning to `CC(C)[C@@H](Nc1nc2cc[nH]c(=O)c2c2cnccc12)C(F)(F)F`, the IC50 in data set [2] was determined as 40 nM; with Mus musculus [7] it was 2700 nM; in data set [1], 1 nM; with Mus musculus [8], 2700 nM. The Vd in data set [3] is 8 L/kg. The amount in solution in data set [4] (solubility) came to 120 µM (≈ 40.4 µg/mL). In data set [5], this compound gave a clearance of 68 mL/min/kg. Also, in data set [6], the logD is 2.33.
For `CC(C)(CO)CNc1nc2cc[nH]c(=O)c2c2cc(F)ccc12`, the midpoint of inhibition in data set [1], the IC50, lay at 274 nM.
With `O=c1[nH]ccc2nc(Nc3cccc(F)c3)c3ccc(F)cc3c12`, the midpoint of inhibition in data set [1], the IC50, lay at 4100 nM.
The same measure, in the same setting: as for `CC(C)(C)CNc1nc2cc[nH]c(=O)c2cc1-c1ccc(F)cc1`, the figure is 29000 nM; as for `O=c1[nH]ccc2nc(NC3CCC3)c3ccc(F)cc3c12`, 75 nM; as for `CC(C)[C@H](Nc1nc2cc[nH]c(=O)c2c2cc(F)ccc12)C(F)(F)F`, 55 nM.
As to `CC(Nc1nc2cc[nH]c(=O)c2cc1-c1ccc(F)cc1)c1cc(F)c(Cl)cc1Cl` (stereo unspecified), the IC50 in data set [1] amounted to 11800 nM.
